Patent US9624214B2, “Amino-substituted imidazo[1,2-a]pyridinecarboxamides and their use” (BAYER PHARMA AKTIENGESELLSCHAFT, priority 2012, dated 2017)
Counter-ions that a name gives are not always drawn.

target: T1, recombinant guanylate cyclase reporter cell line (Rattus norvegicus, UniProt P19686+P20595); assay: B-2. Action on recombinant guanylate cyclase reporter cell line; assay type: cell-based; conditions: MEC = minimal effective concentration; in some cases mean values from individual determinations
T1 construct: expressed in transfected cells
T1 sequence (P20595 1-619): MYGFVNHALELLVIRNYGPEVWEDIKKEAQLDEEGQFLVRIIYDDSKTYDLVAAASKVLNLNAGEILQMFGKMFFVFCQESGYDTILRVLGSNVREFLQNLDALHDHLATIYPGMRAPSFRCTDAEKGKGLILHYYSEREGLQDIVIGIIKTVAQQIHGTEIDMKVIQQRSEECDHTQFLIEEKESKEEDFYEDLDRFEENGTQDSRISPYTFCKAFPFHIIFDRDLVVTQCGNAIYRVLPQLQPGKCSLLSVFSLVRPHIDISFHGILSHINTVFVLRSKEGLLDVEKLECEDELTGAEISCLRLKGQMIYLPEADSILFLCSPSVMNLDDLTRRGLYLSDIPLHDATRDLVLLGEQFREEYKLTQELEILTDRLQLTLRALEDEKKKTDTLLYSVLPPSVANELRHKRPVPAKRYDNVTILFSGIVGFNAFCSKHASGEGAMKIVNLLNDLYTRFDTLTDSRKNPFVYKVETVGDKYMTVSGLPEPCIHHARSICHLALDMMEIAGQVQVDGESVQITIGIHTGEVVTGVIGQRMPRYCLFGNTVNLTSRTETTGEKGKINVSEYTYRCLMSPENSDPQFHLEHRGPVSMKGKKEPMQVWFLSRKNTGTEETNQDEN
T1 sequence (P19686 1-690): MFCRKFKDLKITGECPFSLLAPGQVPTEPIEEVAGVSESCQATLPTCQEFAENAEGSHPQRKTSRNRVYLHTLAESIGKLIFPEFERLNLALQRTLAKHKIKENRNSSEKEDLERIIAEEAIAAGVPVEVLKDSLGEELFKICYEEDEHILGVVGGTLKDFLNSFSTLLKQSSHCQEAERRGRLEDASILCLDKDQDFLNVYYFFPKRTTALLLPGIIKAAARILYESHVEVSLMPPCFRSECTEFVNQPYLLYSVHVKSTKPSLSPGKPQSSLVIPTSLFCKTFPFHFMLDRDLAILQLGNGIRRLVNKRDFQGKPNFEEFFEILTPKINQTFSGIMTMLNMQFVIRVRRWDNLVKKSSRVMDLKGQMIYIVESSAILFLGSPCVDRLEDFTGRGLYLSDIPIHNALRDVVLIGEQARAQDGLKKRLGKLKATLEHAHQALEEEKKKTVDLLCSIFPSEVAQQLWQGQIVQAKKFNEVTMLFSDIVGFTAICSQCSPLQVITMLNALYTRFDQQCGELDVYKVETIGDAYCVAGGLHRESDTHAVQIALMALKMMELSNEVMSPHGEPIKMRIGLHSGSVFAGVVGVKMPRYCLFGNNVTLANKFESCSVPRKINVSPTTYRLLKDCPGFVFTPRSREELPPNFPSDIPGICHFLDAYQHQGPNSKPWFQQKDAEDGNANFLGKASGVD
Procedure: B-2. Action on Recombinant Guanylate Cyclase Reporter Cell Line
The cellular action of the compounds according to the invention is determined on a recombinant guanylate cyclase reporter cell line, as described in F. Wunder et al., Anal. Biochem. 339, 104-112 (2005).
Representative MEC values (MEC=minimal effective concentration) for the compounds according to the invention are shown in the following table (in some cases as mean values obtained from individual determinations): […]

MEC [µM] | SMILES
0.20 | Cc1cc(OCc2c(F)cccc2F)c2nc(C)c(C(=O)NC3CCC(N)C3)n2c1 (mixture of isomers) [Example 308, N-(3-aminocyclopentyl)-8-[(2,6-difluorobenzyl)oxy]-2,6-dimethylimidazo[1,2-a]pyridine-3-carboxamide (Stereoisomer Mixture)]
0.30 | Cc1nc2c(OCc3c(F)cccc3F)cccn2c1C(=O)NC(C)[C@H](C)N (stereo partly drawn) [Example 120, N-[(3S)-3-Aminobutan-2-yl]-8-[(2,6-difluorobenzyl)oxy]-2-methylimidazo[1,2-a]pyridine-3-carboxamide]
1.00 | CC[C@@H](N)CNC(=O)c1c(C)nc2c(OCc3c(F)cccc3F)cc(Cl)cn12 [Example 35, ent-N-[(2R)-2-aminobutyl]-6-chloro-8-[(2,6-difluorobenzyl)oxy]-2-methylimidazo[1,2-a]-pyridine-3-carboxamide]
0.55 | Cc1cc(OCc2c(F)cccc2F)c2nc(C)c(C(=O)NCC(C)(N)CO)n2c1 (single isomer, unassigned; enantiomer a) [Example 268, ent-N-(2-Amino-3-hydroxy-2-methylpropyl)-8-[(2,6-difluorobenzyl)oxy]-2,6-dimethylimidazo-[1,2-a]pyridine-3-carboxamide (Enantiomer A)]
2.00 | Cc1nc2c(OCc3c(F)cccc3F)cccn2c1C(=O)NCCN(C)C [Example 86, 8-[(2,6-difluorobenzyl)oxy]-N-[2-(dimethyl-amino)ethyl]-2-methylimidazo[1,2-a]pyridine-3-carboxamide]
1.00 | Cc1nc2c(OCc3c(F)cccc3F)cc(Cl)cn2c1C(=O)NCCNC(C)C [Example 149, 6-chloro-8-[(2,6-difluorobenzyl)oxy]-N-[2-(isopropylamino)ethyl]-2-methylimidazo[1,2-a]-pyridine-3-carboxamide]
1.00 | Cc1cc(OCc2c(F)cccc2F)c2nc(C)c(C(=O)NC34CCC3CNC4)n2c1 (racemic) [Example 346, rac-N-(3-azabicyclo[3.2.0]hept-1-yl)-8-[(2,6-difluorobenzyl)oxy]-2,6-dimethylimidazo[1,2-a]pyridine-3-carboxamide]
3.00 | Cc1cc(OCc2c(F)cccc2F)c2nc(C)c(C(=O)NCC(N)c3ccc4ncccc4c3)n2c1 (racemic) [Example 372, rac-N-[2-amino-2-(quinolin-6-yl)ethyl]-8-[(2,6-difluorobenzyl)oxy]-2,6-dimethylimidazo[1,2-a]pyridine-3-carboxamide]
0.10 | CCC(C)(N)CNC(=O)c1c(C)nc2c(OCc3c(F)ccc(F)c3F)cc(C)cn12 (single isomer, unassigned; enantiomer a) [Example 274, ent-N-(2-Amino-2-methylbutyl)-2,6-dimethyl-8-[(2,3,6-trifluorobenzyl)oxy]imidazo[1,2-a]-pyridine-3-carboxamide (Enantiomer A)]
1.00 | Cc1nc2c(OCc3c(F)cccc3F)cccn2c1C(=O)NC12CNCCC1C2 (racemic) [Example 125, rac-N-(3-Azabicyclo[4.1.0]hept-1-yl)-8-[(2,6-difluorobenzyl)oxy]-2-methylimidazo[1,2-a]-pyridine-3-carboxamide]
0.10 | Cc1cc(OCc2c(F)cccc2F)c2nc(C)c(C(=O)NCC(C)(N)Cc3ccccn3)n2c1 (single isomer, unassigned; enantiomer a) [Example 298, ent-N-[2-amino-2-methyl-3-(pyridin-2-yl)propyl]-8-[(2,6-difluorobenzyl)oxy]-2,6-dimethyl-imidazo[1,2-a]pyridine-3-carboxamide (Enantiomer A)]
1.00 | Cc1nc2c(OCc3c(F)cccc3F)cccn2c1C(=O)NC1CCCN(C)C1 (racemic) [Example 84, rac-8-[(2,6-difluorobenzyl)oxy]-2-methyl-N-(1-methylpiperidin-3-yl)imidazo[1,2-a]-pyridine-3-carboxamide]
2.00 | NCC(NC(=O)c1cnc2c(OCc3c(F)cccc3F)cccn12)c1ccc(F)c(F)c1 (stereo not drawn) [Example 55, ent-N-[2-amino-1-(3,4-difluorophenyl)ethyl]-8-[(2,6-difluorobenzyl)oxy]imidazo[1,2-a]pyridine-3-carboxamide dihydrochloride]
0.30 | CCCC(C)(N)CNC(=O)c1c(C)nc2c(OCc3cccc(C)c3F)cc(C)cn12 (racemic) [Example 317, rac-N-(2-amino-2-methylpentyl)-8-[(2-fluoro-3-methylbenzyl)oxy]-2,6-dimethylimidazo[1,2-a]pyridine-3-carboxamide]
0.30 | Cc1cc(OCc2c(F)cccc2F)c2nc(C)c(C(=O)NC(CN)c3ccc(C#N)cc3)n2c1 (racemic) [Example 398, rac-N-[2-amino-1-(4-cyanophenyl)ethyl]-8-[(2,6-difluorobenzyl)oxy]-2,6-dimethylimidazo[1,2-a]pyridine-3-carboxamide]
0.23 | Cc1nc2c(OCc3c(F)cccc3F)cccn2c1C(=O)NC(CN)CCCC(F)(F)F (single isomer, unassigned; enantiomer b) [Example 6, ent-N-(1-Amino-6,6,6-trifluorohexan-2-yl)-8-[(2,6-difluorobenzyl)oxy]-2-methylimidazo[1,2-a]-pyridine-3-carboxamide (Enantiomer B)]
0.30 | Cc1cc(OCc2c(F)cccc2F)c2nc(C)c(C(=O)NC3CC(C)Nc4ccc(C(F)(F)F)nc43)n2c1 (single isomer, unassigned; ent-8) [Example 326, ent-8-[(2,6-Difluorobenzyl)oxy]-2,6-dimethyl-N-[2-methyl-6-(trifluoromethyl)-1,2,3,4-tetrahydro-1,5-naphthyridin-4-yl]imidazo[1,2-a]pyridine-3-carboxamide]
1.00 | Cc1nc2c(OCc3c(F)cccc3F)cccn2c1C(=O)NCCN(CC(F)F)C1CC1 [Example 146, N-{2-[cyclopropyl(2,2-difluoroethyl)amino]ethyl}-8-[(2,6-difluorobenzyl)oxy]-2-methylimidazo[1,2-a]-pyridine-3-carboxamide]
0.30 | Cc1nc2c(OCc3c(F)cccc3F)cc(Cl)cn2c1C(=O)NCC(C)(N)CC(C)C (single isomer, unassigned) [Example 227, ent-N-(2-Amino-2,4-dimethylpentyl)-6-chloro-8-[(2,6-difluorobenzyl)oxy]-2-methylimidazo[1,2-a]pyridine-3-carboxamide]
1.00 | Cc1nc2c(OCc3c(F)cccc3F)cccn2c1C(=O)NCC(C(C)C)N(C)C (single isomer, unassigned; ent-8) [Example 188, ent-8-[(2,6-Difluorobenzyl)oxy]-N-[2-(dimethylamino)-3-methylbutyl]-2-methylimidazo[1,2-a]-pyridine-3-carboxamide]

SMILES | MEC [µM]
Cc1cc(OCCC(C(F)(F)F)C(F)(F)F)c2nc(C)c(C(=O)NCC(C)(N)CC(C)C)n2c1 (racemic) [Example 258, rac-N-(2-Amino-2,4-dimethylpentyl)-2,6-dimethyl-8-[4,4,4-trifluoro-3-(trifluoromethyl)butoxy]-imidazo[1,2-a]pyridine-3-carboxamide] | 1.00
Cc1nc2c(OCc3c(F)cccc3F)cccn2c1C(=O)NC1CN2CCC1CC2 (stereo not shown) [Example 92, N-(1-azabicyclo[2.2.2]oct-3-yl)-8-[(2,6-difluorobenzyl)oxy]-2-methylimidazo[1,2-a]-pyridine-3-carboxamide] | 0.30
